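Grown in 96-well plates, cells were treated for 48 hours with each compound at five concentrations. Insufficient inhibition: endpoint recorded as highest concentration tested. GI50 is the concentration that inhibits growth by half. TGI is the concentration that stops growth completely.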
Legend:
Experiment in all cases: inhibition of tumour cell growth, NCI panel, 48 h
IGROV1 ovarian = system: IGROV1 ovarian
HT29 colon = system: HT29 colon
U251 CNS = system: U251 CNS
A549 NSCLC = system: A549 NSCLC
MCF7 breast = system: MCF7 breast
CCRF-CEM leukemia = system: CCRF-CEM leukemia
DU-145 prostate = system: DU-145 prostate
RPMI-8226 leukemia = system: RPMI-8226 leukemia
T-47D breast = system: T-47D breast
HCT-15 colon = system: HCT-15 colon

| SMILES | TGI (IGROV1 ovarian) [µM] | TGI (HT29 colon) [µM] | TGI (U251 CNS) [µM] | TGI (A549 NSCLC) [µM] | TGI (MCF7 breast) [µM] | TGI (CCRF-CEM leukemia) [µM] | TGI (DU-145 prostate) [µM] | TGI (RPMI-8226 leukemia) [µM] | TGI (T-47D breast) [µM] | TGI (HCT-15 colon) [µM] | GI50 (IGROV1 ovarian) [µM] | GI50 (HT29 colon) [µM] | GI50 (U251 CNS) [µM] | GI50 (A549 NSCLC) [µM] | GI50 (MCF7 breast) [µM] | GI50 (CCRF-CEM leukemia) [µM] | GI50 (DU-145 prostate) [µM] | GI50 (RPMI-8226 leukemia) [µM] | GI50 (T-47D breast) [µM] | GI50 (HCT-15 colon) [µM] |
| --- | --- | --- | --- | --- | --- | --- | --- | --- | --- | --- | --- | --- | --- | --- | --- | --- | --- | --- | --- | --- |
| CC1=NN(c2ccccc2)C(=O)C1C(=O)C(=O)Nc1ccc(C)cc1C (stereo not given) | > 100 | > 100 | > 100 | > 100 | > 100 | > 100 | > 100 | > 100 | > 100 | > 100 |  |  |  |  |  |  |  |  |  |  |
| COc1cc2c3c(n(CCCN4CCOCC4)c(=O)c2cc1OC)-c1cc2c(cc1C3=O)OCO2 | > 100 | > 67 | > 91.6 | > 100 | > 36.3 | 3.34 | > 21.6 | 16.8 | > 100 | > 100 | > 61 | 5.62 | 3.56 | 3.43 | 0.368 | 0.0934 | 0.612 | 0.608 | > 50.8 | 17.4 |
| Cc1ccc(S(=O)(=O)C2=C3C(=C(c4ccccc4)c4ccccc43)CN(S(=O)(=O)c3ccc(C)cc3)C2)cc1 | 62.6 | 69.4 | 12.7 | > 100 | > 100 | > 100 | > 100 | 7.41 | 31.5 | 16.3 | 5.36 | 3.32 | 3.01 | > 100 | 2.43 | 0.446 | 11.8 | 1.41 | 2.91 | 2.32 |

Reference: PubChem BioAssay (NCI)
